Assay [1] concerns Normal Human Articular Chondrocytes (NHAC-knee). The experiment in a line: BrdU cell proliferation assay. Type of assay: cell-based.
Procedure: Clonetics® Normal Human Articular Chondrocytes (NHAC-knee) obtained from Lonza Australia Pty Ltd, were grown in chondrocyte growth medium (CGM) supplemented with growth factors. NHACs were used at passage #3-4 for all experiments.
The following assays were carried out using the protocols as per kit instructions:
Each of the above fractions was then individually assayed again for viability/cytotoxicity, cell growth and proliferation, apoptosis/necrosis using the tests as previously mentioned.
The next assay deals with aggrecan. The experiment in a line: aggrecan RNA expression in cartilage explants (real time RT-PCR). In kind it is cell-based, pig. The settings on record: indosim 0.02 mg/mL. The method, then: Front legs of market weight pigs (5-7 months old, 200-250 lbs) were obtained from a local abattoir. Legs were chilled on crushed ice until dissection. Using aseptic technique, the intercarpal joint was opened and the cartilage surfaces exposed. A 4 mm dermal biopsy punch was used to take explants (˜0.5 mm thickness; 11-15 mg/explant) of healthy cartilage from the weight-bearing region of both articulating surfaces of the intercarpal joint. Cartilage pieces were washed 3 times in Dubelco's Modified Eagle Medium (DMEM) supplemented with NaHCO3. Two cartilage discs were placed into each well of 24-well tissue culture plates containing DMEM supplemented with amino acids, sodium selenite, manganese sulfate, NaHCO3 and ascorbic acid (TCM—tissue culture medium). Plates were incubated at 37° C., 7% CO2 in a humidified atmosphere for up to 144 h. Every 24 h media was completely aspirated into 1 mL microcentrifuge tubes and immediately replaced with control, conditioned and/or stimulated media (described below) before being returned to the incubator. The collected media was stored at −80° C. until analysis. Cartilage was harvested at the end of each experiment with one explant per well stained for cytotoxicity and the remaining cartilage immediately frozen at −80° C. […]
SEQsim was prepared as explained above. […] Media was analyzed for [PGE2], [GAG], and [NO]. […]
For orientation: In qPCR the cycle at which signal appears reflects the starting amount.

The next assay relates to iNOS. The experiment in a line: iNOS expression in IL-1-stimulated cartilage explants. The settings on record: IL-1-stimulated explants. In kind it is cell-based, pig.
Assay [2] has as its system IL-1 stimulated and unstimulated cartilage explants. The assay is described as follows: GAG release into media by cartilage explants (1,9-DMB assay). In kind it is cell-based, pig. The settings on record: indosim 0.02 mg/mL. On the procedure:
Front legs of market weight pigs (5-7 months old, 200-250 lbs) were obtained from a local abattoir. Legs were chilled on crushed ice until dissection. Using aseptic technique, the intercarpal joint was opened and the cartilage surfaces exposed. A 4 mm dermal biopsy punch was used to take explants ( 0.5 mm thickness; 11-15 mg/explant) of healthy cartilage from the weight-bearing region of both articulating surfaces of the intercarpal joint. Cartilage pieces were washed 3 times in Dubelco's Modified Eagle Medium (DMEM) supplemented with NaHCO3. Two cartilage discs were placed into each well of 24-well tissue culture plates containing DMEM supplemented with amino acids, sodium selenite, manganese sulfate, NaHCO3 and ascorbic acid (TCM-tissue culture medium). Plates were incubated at 37° C., 7% CO2 in a humidified atmosphere for up to 144 h. Every 24 h media was completely aspirated into 1 mL microcentrifuge tubes and immediately replaced with control, conditioned and/or stimulated media (described below) before being returned to the incubator. […] Media was analyzed for [PGE2], [GAG], and [NO]. […] Media GAG concentration was determined using a 1,9-DMB spectrophotometric assay (Chandrasekhar et al., 1987). […] Plates were incubated in the dark for 10 minutes, and absorbance was read on a Victor 3 microplate reader at 530 nm. Sample absorbance was compared to that of a chondroitin sulfate standard. […]

Assay [3] shares this test system. The experiment in a line: nitric oxide (nitrite) in media from cartilage explants. Type of assay: cell-based, pig. The note with it: IL-1-stimulated explants; indosim.
Procedure: Simulated digests were prepared using SEQ (0.85 g), BO [2.5 mL (0.85 g)] and indomethacin (0.074 g—a positive anti-inflammatory control). Each test substance was individually suspended in 35 mL of simulated gastric fluid (37 mM NaCl, 0.03N HCl, 3.2 mg/mL pepsin), and shaken at 37° C. for 2 h (Rininger et al., 2000). After this, solution acidity was neutralized by adding an equinormal volume of 2.2 N NaOH (1.15 mL). To this was added 36.15 mL of simulated intestinal fluid (Rininger et al., 2000−30 mM K2HPO4, 160 mM NaH2PO4; 20 mg/mL pancreatin; pH adjusted to 7.4) and the resultant mixture shaken in a 37° C. incubator for a further 2 h. A “blank” was prepared using identical methodology but without including any test substance.
The supernatant was decanted and centrifuged a second time at 3,000×g for 15 min at 4° C. […]
Synovial fluid [NO]: Nitrite (NO2^−), a stable oxidation product of NO, was analyzed by the Griess reaction (Fenton et al., 2002). […] Sulfanilamide (0.01 g/mL) and N-(1)-Napthylethylene diamine hydrochloride (1 mg/mL) dissolved in phosphoric acid (0.085 g/L) was added to all wells, and absorbance was read within 5 minutes on a Victor 3 microplate reader at 530 nm. Sample absorbance was compared to a sodium nitrite standard.
In assay [4] the test system is IL-1-stimulated and unstimulated cartilage explants. The experiment in a line: cell viability staining of cartilage explants (C-AM / EthD-1). The note with it: indosim 0.02 mg/mL. In kind it is cell-based, pig. On the procedure:
Front legs of market weight pigs (5-7 months old, 200-250 lbs) were obtained from a local abattoir. Legs were chilled on crushed ice until dissection. Using aseptic technique, the intercarpal joint was opened and the cartilage surfaces exposed. A 4 mm dermal biopsy punch was used to take explants ( 0.5 mm thickness; 11-15 mg/explant) of healthy cartilage from the weight-bearing region of both articulating surfaces of the intercarpal joint. Cartilage pieces were washed 3 times in Dubelco's Modified Eagle Medium (DMEM) supplemented with NaHCO3. Two cartilage discs were placed into each well of 24-well tissue culture plates containing DMEM supplemented with amino acids, sodium selenite, manganese sulfate, NaHCO3 and ascorbic acid (TCM-tissue culture medium). Plates were incubated at 37° C., 7% CO2 in a humidified atmosphere for up to 144 h. Every 24 h media was completely aspirated into 1 mL microcentrifuge tubes and immediately replaced with control, conditioned and/or stimulated media (described below) before being returned to the incubator. […] Media was analyzed for [PGE2], [GAG], and [NO]. […] Cell viability was determined using a commercially available viability staining kit (Invitrogen; Burlington ON) (Pearson et al., 2007). […] The plate was read from the bottom of each well using 10 horizontal steps, 3 vertical steps, and a 0.1 mm displacement.

The values below come from patent US8431169B2, “Nutraceutical composition and methods of use” (Dacy Tech Pty Ltd, priority 2007, dated 2013).

The structures appear in SMILES notation.

Procedure for iNOS: Simulated digests were prepared using SEQ (0.85 g), BO [2.5 mL (0.85 g)] and indomethacin (0.074 g—a positive anti-inflammatory control). […]

Consider `CCCCCCCCC=CCCCCCCCC(=O)O` [Fraction F1.4, 9-Octadecenoic acid], for which the “NHAC proliferation (BrdU)” value in assay [1] is given as “most active”.

Consider `COc1ccc2c(c1)c(CC(=O)O)c(C)n2C(=O)c1ccc(Cl)cc1` [indosim, indomethacin], for which the “aggrecan increase after IL-1 stimulation” value in the assay with aggrecan (IL-1-stimulated (10 ng/mL) explants) is “completely abolished”. In the assay with aggrecan (unstimulated explants), the “increase in aggrecan expression” value stood at 58 fold. In addition, in the assay with iNOS, the “IL-1-mediated iNOS expression” value is listed as “augmenting effect”. Also, the “media [GAG] compared with stimulated controls” value in assay [2] (IL-1-stimulated explants, p=0.1) was “elevated compared with stimulated controls over the duration of the experiment, but not significantly”. Besides, the “media [GAG] compared with unstimulated controls” value in assay [2] (unstimulated explants) is “significantly higher”. The “IL-1-mediated NO production” value in assay [3] is “increase”. Also, the cell viability entry in assay [4] (IL-1-stimulated explants) and in assay [4] (unstimulated explants) was “no significant effect” each time.
